Laboratory results from US20170239289A1, “TREATMENT OF INFLAMMATION, RESPIRATORY TRACT INFECTIONS AND CYSTIC FIBROSIS” (Advanced Inhalation Therapies (AIT) Ltd., priority 2014, published 2017).

How the values were obtained:
Assay type in all cases: in vivo
[1] = system: human subjects diagnosed with, or suffering from CF; test: Example 1: open-label Phase 2 CF study, 160 ppm NO 30 min 3x daily, 5 days/week, 2 weeks; safety monitoring
Procedure: (§1) NO was administered via inhalation to nine clinically stable human subjects diagnosed with, or suffering from CF from two medical centers. Patients received three daily 30-minute treatments of 160 ppm NO with at least 3.5 hours between treatments, for 5 days per week over a two-weeks time period.
Safety parameters, including NO and nitrogen dioxide (NO2 via NO2^−/NO3^−) concentrations, inhaled fraction of inspired oxygen (FiO2), methemoglobin level (SpMet, or “% MetHb”), and oxyhemoglobin (oxygen) saturation (SpO2 or SaO2), were continuously monitored using a noninvasive pulse-oximetry device RAD-57™ or RAD-87™ by Masimo Irvine, Calif. These devices also monitor Perfusion Index (PI), Respiration Rate (RRa), Total Hemoglobin (SpHb), Carboxyhemoglobin (SpCO), Oxygen Content (SpOC) and Pleth Variability Index (PVI®). Vital signs, including blood pressure, pulse, and respiratory rate were also closely monitored.

[2] = system: Achromobacter spp.; test: Example 1: microbial density in sputum (CFU) during NO inhalation; settings: Patient 3 (CFSCH03)
Procedure: as §1
(§2) Preliminary efficacy measures included determination of microbial density in sputum and measurements of forced exhaled volume at 1 second (FEV1). Inflammation associated with C-reactive protein (CRP) levels was assessed as a secondary outcome measure. Other inflammation biomarkers, such as interleukins, were also monitored (data not shown).
(§3) Bacterial load was measured for exemplary, non-limiting selection of species that included, P. alcaligenes, methicillin-sensitive Staphylococcus aureus (MSSA), Achromobacter spp., A. fumigates, non-mucoid P. aeruginosa and mucoid P. aeruginosa.

[3] = system: P. alcaligenes; test: as above; settings: Patient 1 (CFSCH01), by Day 9
Procedure: as §1, §2, §3

[4] = system: nonmucoid P. aeruginosa; test: as above; settings: Patient 4 (CFSCH04)
Procedure: as §1, §2, §3

[5] = system: A. fumigatus; test: as above; settings: Patient 3 (CFSCH03)
Procedure: as §1, §2, §3

[6] = system: mucoid P. aeruginosa; test: as above; settings: Patient 4 (CFSCH04)
Procedure: as §1, §2, §3

[7] = system: Achromobacter spp.; test: Example 4: bacterial and fungal sputum load
Procedure: (§4) In addition to their standard care, subjects were administered three 30-minute inhalations per day of 160 ppm NO (with O2/air) for 10 working days (i.e., 5 days on treatment, 2 days off treatment, 5 days on treatment, for a total of 10 treatment days and 30 inhalations).
(§5) Secondary Endpoints—Efficacy: • Comparison of FEV1 improvement before and after NO treatment Observational Endpoints: • To determine the reduction in bacterial and fungal sputum load during each week of NO treatment compared to bacterial sputum load before NO treatment • Assess the improvement of lung function indices during and after NO intermittent inhalation treatment as determined by spirometry (i.e., FVC, FEV1, FEV1/FVC, forced expiratory flow 25% to 75% (FEF 25-75)) • Evaluate C-reactive protein (CRP) levels over time • Number of subjects with study drug related bleeding at any time point
(§6) Results of the bacterial and fungal sputum load analysis were highly variable, and due to limitations of the sampling and testing technique, must be interpreted with caution. Microbiology results were recorded from Day 1 to end of follow-up, for all samples taken during the study. In order for NO therapy to be efficient, a minimal exposure of the microbial population to NO for the whole duration of the study is required. […] Thus, data was analyzed only for cultures with positive results on Day 1. Furthermore, samples from 2 subjects (SO-01 and SO-02) were not analyzed by the central laboratory. A summary of the bacterial and fungal sputum results at Day 1 and Day 9 is presented according to subject in Table 18.

[8] = system: mucoid P. aeruginosa; test: Example 4: bacterial and fungal sputum load
Procedure: as §4, §5, §6

[9] = system: Total P. aeruginosa; test: Example 4: bacterial and fungal sputum load
Procedure: as §4, §5, §6

[10] = system: Non-Mucoid P. aeruginosa; test: Example 4: bacterial and fungal sputum load
Procedure: as §4, §5, §6

[11] = system: Aspergillus fumigatus; test: Example 4: bacterial and fungal sputum load
Procedure: as §4, §5, §6

[N]=O [NO, nitric oxide]
Average MetHb levels post treatment (mean±SD) ([1]; 9 subjects, 10 days of treatment): 2.4%
Oxygen saturation post treatment ([1]; all 9 subjects): more than 92%
MetHb levels throughout the trial (safety limit) ([1]; all subjects): < 5%
Changes in vital signs ([1]; during the study): no clinically significant changes in vital signs
Serious adverse events ([1]; during the study): No serious adverse events
decrease in Achromobacter spp. CFU [2]: 1 log
decrease in P. alcaligenes CFUs [3]: 2 log
decrease in nonmucoid P. aeruginosa counts [4]: 1 log
A. fumigatus CFU counts [5]: elimination
decrease in mucoid P. aeruginosa counts [6]: 2 log
Achromobacter spp., % change from Day 1 to Day 9 ([7]; Subject SC-03): −94.3%
Achromobacter spp. sputum load ([7]; Subject SC-03, Day 1): 44.1 CFU/mL × 10^−4
Achromobacter spp. sputum load ([7]; Subject SC-03, Day 9): 2.50 CFU/mL × 10^−4
Mucoid P. aeruginosa, % change from Day 1 to Day 9 ([8]; Subject SC-01): −3.7%
Mucoid P. aeruginosa sputum load ([8]; Subject SC-01, Day 1): 2,700 CFU/mL × 10^−4
Mucoid P. aeruginosa sputum load ([8]; Subject SC-01, Day 9): 2,600 CFU/mL × 10^−4
Mucoid P. aeruginosa, % change from Day 1 to Day 9 ([8]; Subject SC-05): −99.9%
Mucoid P. aeruginosa sputum load ([8]; Subject SC-05, Day 1): 29,000 CFU/mL × 10^−4
Mucoid P. aeruginosa sputum load ([8]; Subject SC-05, Day 9): 30.0 CFU/mL × 10^−4
Total P. aeruginosa (central lab only), % change from Day 1 to Day 9 ([9]; Subject SC-01): −3.7%
Total P. aeruginosa (including Soroka lab), % change from Day 1 to Day 9 ([9]; Subject SC-01): −3.7%
Total P. aeruginosa (central lab only) sputum load ([9]; Subject SC-01, Day 1): 2,700 CFU/mL × 10^−4
Total P. aeruginosa (including Soroka lab) sputum load ([9]; Subject SC-01, Day 1): 2,700 CFU/mL × 10^−4
Total P. aeruginosa (central lab only) sputum load ([9]; Subject SC-01, Day 9): 2,600 CFU/mL × 10^−4
Total P. aeruginosa (including Soroka lab) sputum load ([9]; Subject SC-01, Day 9): 2,600 CFU/mL × 10^−4
Total P. aeruginosa (central lab only), % change from Day 1 to Day 9 ([9]; Subject SC-02): +33.1%
Total P. aeruginosa (including Soroka lab), % change from Day 1 to Day 9 ([9]; Subject SC-02): +33.1%
Total P. aeruginosa (central lab only) sputum load ([9]; Subject SC-02, Day 1): 496 CFU/mL × 10^−4
Total P. aeruginosa (including Soroka lab) sputum load ([9]; Subject SC-02, Day 1): 496 CFU/mL × 10^−4
Total P. aeruginosa (central lab only) sputum load ([9]; Subject SC-02, Day 9): 660 CFU/mL × 10^−4
Total P. aeruginosa (including Soroka lab) sputum load ([9]; Subject SC-02, Day 9): 660 CFU/mL × 10^−4
Total P. aeruginosa (central lab only), % change from Day 1 to Day 9 ([9]; Subject SC-04): −57.9%
Total P. aeruginosa (including Soroka lab), % change from Day 1 to Day 9 ([9]; Subject SC-04): −57.9%
Total P. aeruginosa (central lab only) sputum load ([9]; Subject SC-04, Day 1): 80,000 CFU/mL × 10^−4
Total P. aeruginosa (including Soroka lab) sputum load ([9]; Subject SC-04, Day 1): 80,000 CFU/mL × 10^−4
Total P. aeruginosa (central lab only) sputum load ([9]; Subject SC-04, Day 9): 33,700 CFU/mL × 10^−4
Total P. aeruginosa (including Soroka lab) sputum load ([9]; Subject SC-04, Day 9): 33,700 CFU/mL × 10^−4
Total P. aeruginosa (central lab only), % change from Day 1 to Day 9 ([9]; Subject SC-05): −90.2%
Total P. aeruginosa (including Soroka lab), % change from Day 1 to Day 9 ([9]; Subject SC-05): −90.2%
Total P. aeruginosa (central lab only) sputum load ([9]; Subject SC-05, Day 1): 32,100 CFU/mL × 10^−4
Total P. aeruginosa (including Soroka lab) sputum load ([9]; Subject SC-05, Day 1): 32,100 CFU/mL × 10^−4
Total P. aeruginosa (central lab only) sputum load ([9]; Subject SC-05, Day 9): 3,140 CFU/mL × 10^−4
Total P. aeruginosa (including Soroka lab) sputum load ([9]; Subject SC-05, Day 9): 3,140 CFU/mL × 10^−4
Total P. aeruginosa (including Soroka lab), % change from Day 1 to Day 9 ([9]; Subject SO01): +611%
Total P. aeruginosa (including Soroka lab) sputum load ([9]; Subject SO01, Day 1): 450 CFU/mL × 10^−4
Total P. aeruginosa (including Soroka lab) sputum load ([9]; Subject SO01, Day 9): 3,200 CFU/mL × 10^−4
Total P. aeruginosa (including Soroka lab), % change from Day 1 to Day 9 ([9]; Subject SO02): +250%
Total P. aeruginosa (including Soroka lab) sputum load ([9]; Subject SO02, Day 1): 100 CFU/mL × 10^−4
Total P. aeruginosa (including Soroka lab) sputum load ([9]; Subject SO02, Day 9): 350 CFU/mL × 10^−4
Non-Mucoid P. aeruginosa, % change from Day 1 to Day 9 ([10]; Subject SC-02): +33.1%
Non-Mucoid P. aeruginosa sputum load ([10]; Subject SC-02, Day 1): 496 CFU/mL × 10^−4
Non-Mucoid P. aeruginosa sputum load ([10]; Subject SC-02, Day 9): 660 CFU/mL × 10^−4
Non-Mucoid P. aeruginosa, % change from Day 1 to Day 9 ([10]; Subject SC-04): −57.9%
Non-Mucoid P. aeruginosa sputum load ([10]; Subject SC-04, Day 1): 80,000 CFU/mL × 10^−4
Non-Mucoid P. aeruginosa sputum load ([10]; Subject SC-04, Day 9): 33,700 CFU/mL × 10^−4
Non-Mucoid P. aeruginosa, % change from Day 1 to Day 9 ([10]; Subject SC-05): −89.3%
Non-Mucoid P. aeruginosa sputum load ([10]; Subject SC-05, Day 1): 29,200 CFU/mL × 10^−4
Non-Mucoid P. aeruginosa sputum load ([10]; Subject SC-05, Day 9): 3,110 CFU/mL × 10^−4
Aspergillus fumigatus, % change from Day 1 to Day 9 ([11]; Subject SC-03): −100.0%
Aspergillus fumigatus sputum load ([11]; Subject SC-03, Day 1): 2.00 CFU/mL × 10^−4
Aspergillus fumigatus sputum load ([11]; Subject SC-03, Day 9): 0 CFU/mL × 10^−4
